Measured values from paper PMC6537213, “Ellagic acid microspheres restrict the growth of Babesia and Theileria in vitro and Babesia microti in vivo” (Parasites & Vectors, 2019).

Key:
[1] = system: B. divergens (Germany strain); experiment: in vitro growth inhibition assay (SYBR Green I fluorescence), single drug and 1:1 combination; type: cell-based, Babesia divergens; conditions: Babesia divergens, 96 h, B. divergens in vitro culture, 4 days
Protocol: (§1) A microaerophilic stationary-phase culture system was used to maintain Babesia parasite cultures for a long time. Briefly, B. caballi (USDA strain) was grown using equine red blood cells (RBCs) in GIT medium supplemented with 40% equine serum. Theileria equi (USDA strain) was grown in equine RBCs in Medium 199 (M199; Sigma-Aldrich, Tokyo) supplemented with 40% equine serum, and hypoxanthine (MP Biomedicals, Santa Ana, CA, USA) at a final concentration of 13.6 μg/ml was used as a vital supplement. Babesia bovis (Texas strain) and B. bigemina (Argentina strain) were grown in bovine RBCs in M199 medium supplemented with 40% bovine serum. Meanwhile, B. divergens (Germany strain) was grown in bovine RBCs in medium RPMI 1640 (Sigma-Aldrich, Tokyo) supplemented with 40% bovine serum. All media included 60 U/ml penicillin G, 60 μg/ml streptomycin and 0.15 μg/ml amphotericin B (Sigma-Aldrich, St. Louis, MO, USA) to prevent bacterial contamination. The cultures were incubated at 37 °C in a humidified chamber with an atmosphere of 5% CO2, 5% O2 and 90% N2. Babesia microti (Munich strain) was recovered from − 80 °C stock, intraperitoneally injected in two 8-week old female BALB/c mice (Clea Japan, Tokyo, Japan), and the parasitemia was monitored every 2 days. The mice were euthanized using an anesthesia system containing isoflurane after parasitemia reached approximately 30%, and blood was collected by cardiac puncture to initiate the in vivo experiment. The animal experiment was conducted in accordance with the Regulations for Animal Experiments of Obihiro University of Agriculture and Veterinary Medicine, Japan (animal experiment accession number: 290168).
(§2) Assays were performed in accordance with the previously described protocol. Briefly, B. bovis, B. bigemina, B. divergens, B. caballi and T. equi cultures were harvested and adjusted to 1% parasitemia with fresh RBCs to start the inhibition assay. The assays were carried out using 96-well microtiter plates where only the 60 inner wells were used, while the peripheral wells were filled with sterile distillate water to reduce evaporation during incubation. In five 96-well plates, a volume of 2.5 µl each of B. bigemina- and B. bovis-iRBCs and 5 µl each of B. divergens-, B. caballi- and T. equi-iRBCs were added to each well in triplicate and mixed with a culture medium containing the drug concentrations to a total volume of 100 µl. Various concentrations of EA, β-CD EA, APSP EA, DA, CF and AQ were dissolved in a culture medium using two-fold dilution. Wells containing DMSO at a final concentration of 0.4% and iRBCs were used as a positive control, while wells with non-infected RBCs and culture medium were used as a negative control. Additionally, a drug combination assay was performed in parallel with the single drug assay at a constant ratio of 1:1, as described previously. […] The plates were incubated in a humidified incubator with 5% CO2, 5% O2 and 90% N2 for 4 days without changing the medium. On day 4, 100 µl of a lysis buffer containing 2 × SG1 was added to each well. The plates were wrapped with aluminum foil to avoid direct light exposure and incubated at room temperature. After 6 h, fluorescence values were measured using a fluorescence spectrophotometer (Fluoroskan Ascent; Thermo LabSystems, Oceanside, CA, USA) with excitation and emission wavelengths of 485 and 518 nm, respectively. The fluorescence data were subtracted from the negative control and used to calculate the IC50. […]

[2] = system: mouse embryonic fibroblast (NIH/3T3) cell line; experiment: cytotoxicity assay (CCK-8); type: cell-based; conditions: for EC50: Mus musculus, NIH3T3, NIH/3T3 cells, 24 h exposure, CCK-8
Protocol: (§3) The MDBK cell line was maintained in 75 cm^2 culture flasks with Minimum Essential Medium Eagle (MEM; Gibco, Grand Island, NY, USA), while Dulbecco’s Modified Eagle’s Medium (DMEM; […] Each medium was supplemented with 10% fetal bovine serum, 0.5% penicillin/streptomycin (Gibco), and an additional 1% glutamine. Every 3 to 4 days, the medium was changed, and the cells were incubated until approximately 80% confluent. The cells were free from mycoplasma contamination after being checked by staining with 4,6-diamidino-2-phenylindole dihydrochloride (DAPI; Sigma-Aldrich, St. Louis). The cell detachment from the culture flask was done using TrypLE^TM Express (Gibco) after washing two times with Dulbecco’s phosphate-buffered saline (DPBS). Subsequently, viable cells were counted using a Neubauer Improved C-Chip (NanoEnTek Inc., Seoul, Korea) after staining with 0.4% trypan blue solution. The drug-exposure viability assay was performed in accordance with the recommendation for the Cell Counting Kit-8 (CCK-8; Dojindo, Kumamoto, Japan). Briefly, in a 96-well plate, 100 µl of cells at a density of 5 × 10^4 cells/ml were seeded per well and allowed to attach to the plate for 24 h at 37 °C in a humidified incubator with 5% CO2. Ten microliters of drug diluted two-fold were added to each well to a final concentration of 0.781 to 800 µM in triplicate. Wells with only a culture medium were used as blanks, while wells containing cells and a medium with 0.5% DMSO were used as positive controls. Drug exposure lasted for 24 h. After 24 h, 10 µl of CCK-8 was added, and the plate was further incubated for 3 h. Absorbance was measured at 450 nm using a microplate reader.

[3] = system: Madin-Darby bovine kidney (MDBK) cell line; experiment: cytotoxicity assay (CCK-8); type: cell-based; conditions: for EC50: Bos taurus, 24 h, MDBK cells, 24 h exposure, CCK-8
Protocol: as §3

[4] = system: human foreskin fibroblast (HFF) cell line; experiment: cytotoxicity assay (CCK-8); type: cell-based; conditions: for EC50: Homo sapiens, HFF cells, 24 h exposure, CCK-8
Protocol: as §3

[5] = system: B. bigemina (Argentina strain); experiment: in vitro growth inhibition assay (SYBR Green I fluorescence), single drug and 1:1 combination; type: cell-based, Babesia bigemina; conditions: Babesia bigemina, 96 h, B. bigemina in vitro culture, 4 days
Protocol: as §1, §2

[6] = system: Theileria equi (USDA strain); experiment: as above; type: cell-based; conditions: Theileria equi, 96 h, T. equi in vitro culture, 4 days
Protocol: as §1
(§4) Assays were performed in accordance with the previously described protocol. Briefly, B. bovis, B. bigemina, B. divergens, B. caballi and T. equi cultures were harvested and adjusted to 1% parasitemia with fresh RBCs to start the inhibition assay. The assays were carried out using 96-well microtiter plates where only the 60 inner wells were used, while the peripheral wells were filled with sterile distillate water to reduce evaporation during incubation. In five 96-well plates, a volume of 2.5 µl each of B. bigemina- and B. bovis-iRBCs and 5 µl each of B. divergens-, B. caballi- and T. equi-iRBCs were added to each well in triplicate and mixed with a culture medium containing the drug concentrations to a total volume of 100 µl. Various concentrations of EA, β-CD EA, APSP EA, DA, CF and AQ were dissolved in a culture medium using two-fold dilution. Wells containing DMSO at a final concentration of 0.4% and iRBCs were used as a positive control, while wells with non-infected RBCs and culture medium were used as a negative control. Additionally, a drug combination assay was performed in parallel with the single drug assay at a constant ratio of 1:1, as described previously. […] The plates were incubated in a humidified incubator with 5% CO2, 5% O2 and 90% N2 for 4 days without changing the medium. On day 4, 100 µl of a lysis buffer containing 2 × SG1 was added to each well. The plates were wrapped with aluminum foil to avoid direct light exposure and incubated at room temperature. After 6 h, fluorescence values were measured using a fluorescence spectrophotometer (Fluoroskan Ascent; Thermo LabSystems, Oceanside, CA, USA) with excitation and emission wavelengths of 485 and 518 nm, respectively. The fluorescence data were subtracted from the negative control and used to calculate the IC50. To calculate the degree of association, the growth-inhibition values obtained were entered into CompuSyn software, based on the combination index (CI) values. […] The experiments were repeated three times.

[7] = system: Babesia bovis (Texas strain); experiment: as above; type: cell-based; conditions: Babesia bovis, in Bos taurus, 96 h, B. bovis in vitro culture, 4 days
Protocol: as §1, §4

[8] = system: B. microti; experiment: nested PCR detection of B. microti ss-rRNA gene in blood of treated mice; type: in vivo, Babesia microti; conditions: day 42; 20 mg/kg AQ
[9] = system: Babesia microti (Munich strain); experiment: in vivo growth inhibition and drug combination assays in B. microti-infected BALB/c mice; conditions: second assay; for peak parasitemia level: 5 days, DDW control 58.3%
Protocol: as §1
In vivo growth inhibition assays of EA, β-CD EA and APSP EA were performed in B. microti-infected BALB/c mice in accordance with the previous protocol in two separate trials. […] The mice in groups 2–8 were intraperitoneally (i.p.) injected with 0.5 ml of inoculum (1 × 10^7 B. microti-iRBCs). Group 1 was left uninfected and untreated as a negative control. When the average parasitemia in all mice reached 1%, drug treatment was initiated for 5 consecutive days. […] DA at a concentration of 25 mg/kg body weight (BW) was administrated i.p. to the third group as a reference drug control.

[10] = system: B. caballi (USDA strain); experiment: in vitro growth inhibition assay (SYBR Green I fluorescence), single drug and 1:1 combination; type: cell-based, Babesia caballi; conditions: Babesia caballi, 96 h, B. caballi in vitro culture, 4 days
Protocol: as §1, §2

[11] = EC50 NIH/3T3 / IC50 B. bigemina
[12] = EC50 NIH/3T3 / IC50 B. divergens

SMILES	IC50 [1] [µM]	Selective indices NIH/3T3 [2, 11]	Selective indices NIH/3T3 ([2]; EC50 NIH/3T3 / IC50 B. caballi)	Selective indices NIH/3T3 [2, 12]	Selective indices NIH/3T3 ([2]; EC50 NIH/3T3 / IC50 T. equi)	EC50 [2] [µM]	EC50 ([3]; MDBK) [µM]	Selective indices MDBK ([3]; EC50 MDBK / IC50 B. bigemina)	Selective indices MDBK ([3]; EC50 MDBK / IC50 B. caballi)	Selective indices MDBK ([3]; EC50 MDBK / IC50 B. divergens)	Selective indices HFF ([4]; EC50 HFF / IC50 B. bigemina)	Selective indices HFF ([4]; EC50 HFF / IC50 B. caballi)	Selective indices HFF ([4]; EC50 HFF / IC50 B. divergens)	Selective indices HFF ([4]; EC50 HFF / IC50 T. equi)	EC50 [4] [µM]	IC50 [5] [µM]	IC50 [6] [nM]	IC50 [7] [µM]	IC50 [10] [µM]	also measured
O=C1C(O)=C([C@H]2CC[C@H](c3ccc(Cl)cc3)CC2)C(=O)c2ccccc21 [AQ, atovaquone]	0.038 ± 0.002	˃ 12.7	˃ 30.4	˃ 18.5	˃ 13.4	> 100	> 100	˃ 12.7	˃ 30.4	˃ 18.5	˃ 12.7	˃ 30.4	˃ 18.5	˃ 13.4	> 100	0.701 ± 0.04	95 ± 65.5	0.039 ± 0.002	0.102 ± 0.0141	inhibition of cell viability ([2]; NIH/3T3, 100 µM, separate assay): did not show any inhibition; Selective indices MDBK ([3]; EC50 MDBK / IC50 T. equi): ˃ 13.4; inhibition of cell viability ([3]; MDBK, 100 µM, separate assay): did not show any inhibition; inhibition of cell viability ([4]; HFF, 100 µM, separate assay): did not show any inhibition; parasite DNA in blood (nPCR) [8]: not detected; day p.i. from which parasitemia was undetectable by microscopic examination ([9]; 20 mg/kg AQ): 15 day p.i.; peak parasitemia level ([9]; 20 mg/kg AQ oral): 4.3%
CC(C)/N=c1\cc2n(-c3ccc(Cl)cc3)c3ccccc3nc-2cc1Nc1ccc(Cl)cc1 [CF, clofazimine]	13.8 ± 4.3	˃ 17.5	˃ 12.6	˃ 7.2	˃ 34.7	> 100	34 ± 3.4	6.1	4.4	2.5	˃ 17.5	˃ 12.6	˃ 7.2	˃ 34.7	> 100	5.73 ± 1.9	2880 ± 900	8.24 ± 1.7	7.95 ± 1.8	Selective indices NIH/3T3 ([2]; EC50 NIH/3T3 / IC50 B. bovis): ˃ 12.1; Selective indices MDBK ([3]; EC50 MDBK / IC50 B. bovis): 4.2; Selective indices HFF ([4]; EC50 HFF / IC50 B. bovis): ˃ 12.1; day p.i. from which parasitemia was undetectable by microscopic examination ([9]; 20 mg/kg CF): 16 day p.i.; peak parasitemia level ([9]; 20 mg/kg CF oral): 4.9%
